In US20260234543A1, “MICROORGANISMS AND METHODS FOR REDUCING BY-PRODUCTS” (Genomatica, Inc., priority 2023, published 2026):

Legend:
[1] = test system: acyl-CoA synthetase (ACS) (SEQ ID NO: 1); assay: ACS activity on substrates of various chain lengths (enzymatic coupled assay for detection of AMP); assay type: biochemical, Ruegeria pomeroyi; conditions: 5 mM substrate, pH 7.5; for Activity: 250 μM CoA, 1 mM ATP
Procedure: Purified acyl-CoA synthetase (ACS) (GenBank Accession No. WP_011046428.1; see, SEQ ID NO: 1) was assayed for activity on a range of substrates of various chain lengths. The substrates tested, which were conjugate bases (or carboxylates) of C2-C8 carboxylic acids, included acetate (C2), acetoacetate (C4), butyrate (C4), (R)- and(S)-3-hydroxybutryate ((R)-3-HB and(S)-3HB; C4), succinate (C4), hexanoate (C6), adipate (C6), 6-aminocaproic acid (6ACA; C6), and octanoate (C8).
An enzymatic coupled assay for detection of AMP, which is a co-product of the synthetase/ligase enzymatic reaction catalyzed by the ACS/CoA ligase, was used. The coupling enzymes used were adenylate kinase, pyruvate dehydrogenase, and lactate dehydrogenase, which catalyze reactions resulting in the oxidation of 2 NADH molecules per molecule of AMP produced by the ACS/CoA ligase enzymatic reaction. The coupling reagents for AMP detection were phospho (enol) pyruvate and NADH. The ACS/CoA ligase enzymatic reactions were followed by monitoring NADH oxidation over time, by measuring absorbance at 340 nm.
Reactions were set up in 96-well absorbance plates, in aqueous buffer at pH 7.5, and 5 mM of conjugate base substrate, 250 μM of Coenzyme A (CoA), 1 mM of ATP, 5 mM of MgCl2, 1 mM of phospho (enol) pyruvate, 500 μM of NADH, and non-rate limiting concentrations of the three coupling enzymes (adenylate kinase, pyruvate dehydrogenase, and lactate dehydrogenase), were added for each reaction. The ACS enzyme was added at a concentration that was appropriate for measuring a linear change on absorbance over up to 20 minutes. For example, 100 nM of ACS was added for the reactions with butyrate or 3-HB as the substrates. Negative control reactions omitted the substrate (conjugate base), the CoA, or the ACS enzyme.

[2] = test system: CAR enzyme (SEQ ID NO: 3); assay: In vitro CAR activity for conversion of 3HB to 3HB-Ald (NADPH absorbance at 340 nm); assay type: biochemical, Mycobacterium avium; conditions: for CAR Activity: 1 μM CAR, 0.5 mM NADPH, 1 mM ATP
Procedure: In vitro CAR activity for the conversion of 3HB to 3HB—Ald was determined by direct measurement of the decrease in NADPH concentration, by measuring NADPH absorbance at 340 nm over time. The reactions were carried out in 96-well absorbance plates, and varying concentrations of 3HB substrate (see, TABLE 8 below), 0.5 mM of NADPH, 1 mM of ATP, 5 mM of MgCl2, and 1 μM of CAR enzyme (see, SEQ ID NO: 3) were added. A negative control reaction was included, in which addition of 3HB substrate was omitted. CAR activity was measured as μM of NADPH oxidized per minute per μM of CAR enzyme.

## CC(=O)O [Acetate]
[1]
  Activity: 38 μM AMP/min/μM ACS
  ACS activity on substrate (in words): exhibits activity

## CC(O)CC(=O)O (stereo not drawn) [Strain 3HB, 3-hydroxybutyrate]
[2]; 0.78125-50 mM 3HB
  CAR activity as a function of 3HB concentration (in words): CAR activity increases as the concentration of 3HB substrate increases
[2]; 3HB substrate 0.78125 mM
  CAR Activity: 0.47 μM NADPH oxidized/min/μM CAR
[2]; 3HB substrate 1.5625 mM
  CAR Activity: 1.30 μM NADPH oxidized/min/μM CAR
[2]; 3HB substrate 3.125 mM
  CAR Activity: 2.61 μM NADPH oxidized/min/μM CAR
[2]; 3HB substrate 6.25 mM
  CAR Activity: 4.24 μM NADPH oxidized/min/μM CAR
[2]; 3HB substrate 12.5 mM
  CAR Activity: 5.87 μM NADPH oxidized/min/μM CAR
[2]; 3HB substrate 25 mM
  CAR Activity: 8.81 μM NADPH oxidized/min/μM CAR
[2]; 3HB substrate 50 mM
  CAR Activity: 10.25 μM NADPH oxidized/min/μM CAR
[1]
  ACS activity on substrate (in words): has activity on both the (R) and(S) forms

## CC(=O)CC(=O)O [Acetoacetate]
[1]
  Activity: 34 μM AMP/min/μM ACS
  ACS activity on substrate (in words): exhibits activity

## C[C@@H](O)CC(=O)O [(R)-3HB, (3R)-hydroxybutyrate]
[1]
  Activity: 322 μM AMP/min/μM ACS

## NCCCCCC(=O)O [Strain 6ACA, 6-aminocaproic acid]
[1]
  Activity: 0.015 μM AMP/min/μM ACS
  ACS activity on substrate (in words): exhibits activity

## C[C@H](O)CC(=O)O [(S)-3HB, (3S)-hydroxybutyrate]
[1]
  Activity: 222 μM AMP/min/μM ACS

## O=C(O)CCCCC(=O)O [Adipate, adipate]
[1]
  Activity: No activity

## O=C(O)CCC(=O)O [Succinate, succinate]
[1]
  Activity: 0.06 μM AMP/min/μM ACS
  ACS activity on substrate (in words): exhibits activity

## CCCCCCCC(=O)O [Octanoate, octanoate]
[1]
  Activity: No activity
